Usually IC50 stands for the concentration that inhibits the measured activity by half.

Here are results for 32 compounds from patent EP1857440A1, “Novel compounds, isomer thereof, or pharmaceutically acceptable salts thereof as vanilloid receptor antagonist; and pharmaceutical compositions containing the same” (Amorepacific Corporation, priority 2006, dated 2007).

Where only a bound is given, the exact number is not on record here.

The target in the first assay is T1, vanilloid receptor (Rattus norvegicus, UniProt O35433).
T1 construct: DRG nerve cells from the primary culture of 2 days were equilibrated by washing 4 times; endogenous in cells; host or cells: primary culture of dorsal root ganglion (DRG) neurons from neonatal SD rats
T1 sequence (O35433 whole entry): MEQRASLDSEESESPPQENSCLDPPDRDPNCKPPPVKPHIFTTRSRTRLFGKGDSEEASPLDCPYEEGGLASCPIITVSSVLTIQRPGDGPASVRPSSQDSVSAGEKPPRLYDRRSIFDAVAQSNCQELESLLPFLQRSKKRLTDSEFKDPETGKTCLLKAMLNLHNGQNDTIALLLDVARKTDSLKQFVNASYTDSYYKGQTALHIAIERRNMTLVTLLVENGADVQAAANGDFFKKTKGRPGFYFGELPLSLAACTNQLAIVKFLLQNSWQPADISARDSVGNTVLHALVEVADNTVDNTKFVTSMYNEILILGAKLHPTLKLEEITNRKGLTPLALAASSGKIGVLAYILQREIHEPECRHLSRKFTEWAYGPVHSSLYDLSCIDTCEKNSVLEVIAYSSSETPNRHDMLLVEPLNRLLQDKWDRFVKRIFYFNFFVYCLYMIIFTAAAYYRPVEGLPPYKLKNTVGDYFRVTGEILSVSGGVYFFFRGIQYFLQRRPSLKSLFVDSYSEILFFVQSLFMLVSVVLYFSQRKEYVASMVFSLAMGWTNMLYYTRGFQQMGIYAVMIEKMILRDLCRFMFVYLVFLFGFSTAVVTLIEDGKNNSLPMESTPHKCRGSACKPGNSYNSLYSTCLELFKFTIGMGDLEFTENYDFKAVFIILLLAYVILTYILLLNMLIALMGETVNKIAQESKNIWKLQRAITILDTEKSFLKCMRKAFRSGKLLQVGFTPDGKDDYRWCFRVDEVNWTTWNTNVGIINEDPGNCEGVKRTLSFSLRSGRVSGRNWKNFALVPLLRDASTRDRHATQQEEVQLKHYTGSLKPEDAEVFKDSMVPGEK
Kind of assay: 45Ca influx test (calcium uptake) in primary cultured neonatal rat DRG neurons, capsaicin-stimulated. It is filed as cell-based, SD rats. Conditions: 10 µM test compound, capsaicin 0.5 µM. How it is done: 1) Separation of spinal dorsal root ganglia (DRG) in newborn rats and primary culture thereof
Neonatal (2-3 day old or younger than 2-3 day old) SD rats were put in ice for 5 minutes to anesthetize and disinfected with 70% ethanol. DRG of all part of spinal cord were dissected (Wood et al., 1988, J. Neurosci. 8, pp3208-3220) and collected in DME/F12 medium to which 1.2g/l sodium bicarbonate, 50mg/l gentamycin were added. The DRG were incubated sequentially at 37°C for 30 min in 200 U/ml collagenase and 2.5mg/ml trypsin, separately. The gangiia were washed twice with DME/F12 medium supplemented with 10% horse serum, triturated through a fire-polished Pasteur pipette, filtered through Nitex 80 membrane to obtain single cell suspension and the suspension was washed once more. This was subjected to centrifugation, then resuspended in cell culture medium at certain level of cell density. As the cell culture medium, DME/F12 medium supplemented with 10% horse serum was diluted with identical medium conditioned by C6 glioma cells 2 days on a confluent monolayer (1:1), and NGF (Nerve Growth Factor) was added to adjust 200ng/ml as final concentration. After the cells were grown 2 days in medium where cytosine arabinoside (Ara-C, 100 µM) was added to kill dividing nonneuronal cells, medium was changed to one without Ara-C. The resuspended cells were plated at a density of 1500-2000 neurons/well onto Terasaki plates previously coated with 10 µg/ml poly-D-ornithine.
2) ^45 Ca influx experiments
DRG nerve cells from the primary culture of 2 days were equilibrated by washing 4 times with HEPES (10mM, pH 7.4)-buffered Ca ^2+, Mg^2+-free HBSS (H-HBSS). The solution in each well was removed from the individual well. Medium containing the test compound plus capsaicin (final concentration 0.5 µM) and ^45Ca (final concentration 10 µCi/ml) in H-HBSS was added to each well and incubated at room temperature for 10 mins. Terasaki plates were washed five times with H-HBSS and dried at room temperature. To each well, 0.3% SDS (10 µl) was added to elute ^45Ca. After the addition of scintillation cocktail of into each well, the amount of ^45Ca influx into neuron was measured by counting radioactivity. […] [Table 1] Results of Calcium Influx Test
In the case of `CS(=O)(=O)Nc1ccc(CNC(=O)COc2ccccc2C2CCCCC2)cc1F` [Example 63, N-(3-Fluoro-4-methanesulfonylaminobenzyl)-2-(2-cyclohexylphenoxy)acetamide], the “Antagonist Calcium Uptake Test (% @ 10 µM)” value was found to be 52% @ 10 µM. On the same count and under the same terms, for `CS(=O)(=O)Nc1ccc(CNC(=O)COc2ccc3c(c2)CCC3)cc1F` [Example 62, N-(3-Fluoro-4-methanesulfonylaminobenzyl)-2-(indan-5-yloxy)acetamide] the value was 82% @ 10 µM.

The assay is the same for the next values; noted with them: capsaicin 0.5 µM, 45Ca 10 µCi/ml, 10 mins at room temperature, read-out: Antagonist Calcium Uptake Test (IC50).
Consider `C[C@H](Oc1ccc(C(C)(C)C)cc1)C(=O)NCc1ccc(NS(C)(=O)=O)c(F)c1` [Example 14, (S)-2-(4-tert-Butylphenoxy)-N-(3-fluoro-4-methanesulfonylaminobenzyl)propionamide], for which the IC50 worked out at 760 nM. In the case of `CS(=O)(=O)Nc1ccc(CNC(=O)COc2c(I)cc(C(F)(F)F)cc2I)cc1F` [Example 38, 2-(2,6-Diiodo-4-trifluoromethyl-phenoxy)-N-(3-fluoro-4-methanesulfonylamino-benzyl)-acetamide], the IC50 turned out to be 2600 nM. On the same count and under the same terms, for `CS(=O)(=O)Nc1ccc(CNC(=O)COc2ccc(Cl)c(F)c2)cc1F` [Example 59, N-(3-Fluoro-4-methanesulfonylaminobenzyl)-2-(4-chloro-3-fluorophenoxy)acetamide] the value was above 10000 nM. The same measure, in the same setting: for `CS(=O)(=O)Nc1ccc(CNC(=O)COc2ccc(C(F)(F)F)cc2N2CCOCC2)cc1F` [Example 43, N-(3-Fluoro-4-methanesulfonylamino-benzyl)-2-(2-morpholin-4-yl-4-trifluoromethyl-phenoxy)-acetamide] the value was above 10000 nM.

As to `CC(C)(C)C(=O)OCc1cc(C(F)(F)F)ccc1OCC(=O)NCc1ccc(NS(C)(=O)=O)c(F)c1` [Example 58, 2,2-Dimethyl-propionic acid 2-[(3-fluoro-4-methanesulfonylaminobenzylcarbamoyl)-methoxy]-5-trifluoromethyl-benzyl ester], the IC50 was found to be 3000 nM. As for `Cc1cc(CNC(=O)COc2ccc(C(C)(C)C)cc2)cc(Cl)c1NS(C)(=O)=O` [Example 8, 2-(4-tert-Butyl-phenoxy)-N-(3-chloro-4-methanesulfonylamino-5-methylbenzyl)acetamide], the IC50 is 110 nM. The same measure, in the same setting: for `CCC(C)(C)c1ccc(OCC(=O)NCc2ccc(NS(C)(=O)=O)c(F)c2)cc1` [Example 57, N-(3-Fluoro-4-methanesulfonylaminobenzyl)-2-(4-(1,1-dimethylpropyl)phenoxy)acetamide] the value was 130 nM; for `CS(=O)(=O)Nc1ccc(CNC(=O)COc2cc(Cl)cc(Cl)c2)cc1F` [Example 33, N-(3-Fluoro-4-methanesulfonylaminobenzyl)-2-(3,5-dichlorophenoxy)acetamide], above 10000 nM; for `CC(=O)c1cc(C(F)(F)F)ccc1OCC(=O)NCc1ccc(NS(C)(=O)=O)c(F)c1` [Example 44, 2-(2-Acetyl-4-trifluoromethyl-phenoxy)-N-(3-fluoro-4-methanesulfonylamino-benzyl)-acetamide], above 10000 nM.

On to `CS(=O)(=O)Nc1ccc(CNC(=O)COc2ccc(-c3ccccc3Cl)cc2)cc1F` [Example 60, 2-(2'-Chloro-biphenyl-4-yloxy)-N-(3-fluoro-4-methanesulfonylaminobenzyl)-acetamide], for which the IC50 is above 10000 nM. The same measure, in the same setting: for `CC(C)(C)c1ccc(OC(F)C(=O)NCc2ccc(NS(C)(=O)=O)c(F)c2)cc1` (centres unmarked) [Example 48, 2-(4-tert-Butylphenoxy)-2-fluoro-N-(3-fluoro-4-methanesulfonylaminobenzyl)acetamide] the value was 180 nM; for `CC(C)(C)c1ccc(OCC(=O)NCc2cc(F)c(NS(C)(=O)=O)c(C#N)c2)cc1` [Example 47, 2-[4-(tert-butyl)phenoxy]-N-(3-cyano-5-fluoro-4-methanesulfonyl Amino-benzyl)acetamide], 150 nM; for `CS(=O)(=O)Nc1ccc(CNC(=O)COc2ccc(Cl)cc2)cc1F` [Example 34, 2-(4-Chloro-phenoxy)-N-(3-fluoro-4-methanesulfonylamino-benzyl)-acetamide], 8700 nM. On the same count and under the same terms, for `CC(C)(C)c1ccc(OCC(=O)NCc2ccc(NS(C)(=O)=O)c(F)c2)c(C(C)(C)C)c1` [Example 55, N-(3-Fluoro-4-methanesulfonylaminobenzyl)-2-(2,4-di-tert-butylphenoxy)acetamide] the value was 5600 nM; for `Cc1cc(NS(C)(=O)=O)c(F)cc1CNC(=O)COc1ccc(C(C)(C)C)cc1` [Example 9, 2-(4-tert-Butylphenoxy)-N-(5-fluoro-4-methanesulfonylamino-2-methylbenzyl)acetamide], 330 nM. On the same count and under the same terms, for `CCCOc1ccc(OCC(=O)NCc2ccc(NS(C)(=O)=O)c(F)c2)cc1` [Example 41, N-(3-Fluoro-4-methanesulfonylaminobenzyl)-2-(4-n-propoxyphenoxy)acetamide] the value was above 10000 nM. Take `CS(=O)(=O)Nc1ccc(CNC(=O)COc2ccc(-c3ccccc3)cc2)cc1F` [Example 27, 2-(Biphenyl-4-yloxy)-N-(3-fluoro-4-methanesulfonylamino-benzyl)-acetamide]: the IC50 is above 10000 nM.

Take `CS(=O)(=O)Nc1ccc(CNC(=O)COc2cccc(Cl)c2)cc1F` [Example 42, N-(3-Fluoro-4-methanesulfonylaminobenzyl)-2-(3-chlorophenoxy)acetamide]: the IC50 is above 10000 nM. Still for that read-out and setting: for `CS(=O)(=O)Nc1ccc(CNC(=O)COc2ccc(C3CCCCC3)cc2)cc1F` [Example 64, N-(3-fluoro-4-methanesulfonylamino-benzyl)-2-(4-Cyclohexylphenoxy)-acetamide] the value was above 10000 nM; for `CS(=O)(=O)Nc1ccc(CNC(=O)COc2ccc(C(F)(F)F)cc2I)cc1F` [Example 39, N-(3-Fluoro-4-methanesulfonylamino-benzyl)-2-(2-iodo-4-trifluoromethyl-phenoxy)-acetamide], above 10000 nM. Take `CS(=O)(=O)Nc1ccc(CNC(=O)COc2ccc(Cl)cc2Cl)cc1F` [Example 22, 2-(2,4-Dichloro-phenoxy)-N-(3-fluoro-4-methanesulfonylaminobenzyl)-acetamide]: the IC50 was above 10000 nM.

Consider `CC(C)(Oc1ccc(C(F)(F)F)cc1)C(=O)NCc1ccc(NS(C)(=O)=O)c(F)c1` [Example 23, N-(3-Fluoro-4-methanesulfonylamino-benzyl)-2-methyl-2-(4-trifluoromethyl-phenoxy)-propionamide], for which the IC50 was above 10000 nM. Same read-out and setting: for `CS(=O)(=O)Nc1ccc(CNC(=O)COc2ccc(OC(F)(F)F)cc2)cc1F` [Example 28, N-(3-Fluoro-4-methanesulfonylaminobenzyl)-2-(4-(trifluoromethoxy)phenoxy)acetamide] the value was 4300 nM; for `CS(=O)(=O)Nc1ccc(CNC(=O)COCc2ccc(C(F)(F)F)cc2)cc1F` [Example 26, N-(3-Fluoro-4-methanesulfonylamino-benzyl)-2-(4-trifluoromethylbenzyloxy)-acetamide], above 10000 nM; for `C[C@@H](N/C(COc1ccc(C(C)(C)C)cc1)=N/C#N)c1ccc(NS(C)(=O)=O)cc1` [Example 17, (R)-2-(4-tert-Butylphenoxy)-N-[1-(4-methanesulfonylaminophenyl)ethyl]-N'-cyanoacetamidine], 210 nM. Same read-out and setting: for `C#Cc1cc(CNC(=O)CSc2ccc(C(C)(C)C)cc2)cc(F)c1NS(C)(=O)=O` [Example 20, 2-(4-tert-Butyl-phenylsulfanyl)-N-(3-ethynyl-5-fluoro-4-methanesulfonylamino-benzyl)-acetamide] the value was 190 nM; for `CC(C)(C)c1ccc(SCC(=O)NCc2ccc(NS(C)(=O)=O)c(F)c2)cc1` [Example 19, 2-(4-tert-Butyl-phenylsulfanyl)-N-(3-fluoro-4-methanesulfonylaminobenzyl)-acetamide], 1500 nM. On the same count and under the same terms, for `C[C@@H](NC(=O)COc1ccc(C(C)(C)C)cc1)c1ccc(NS(C)(=O)=O)cc1` [Example 11, (R)-2-(4-tert-Butylphenoxy)-N-[1-(4-methanesulfonylaminophenyl)ethyl]acetamide] the value was 96 nM; for `CS(=O)(=O)Nc1ccc(CNC(=O)COc2ccccc2C(F)(F)F)cc1F` [Example 51, 2-(2-trifluoromethyl-phenoxy)-N-(3-fluoro-4-methanesulfonylaminobenzyl)-acetamide], above 10000 nM; for `CS(=O)(=O)Nc1ccc(CNC(=O)COc2ccc(I)cc2)cc1F` [Example 36, N-(3-Fluoro-4-methanesulfonylamino-benzyl)-2-(4-iodo-phenoxy)-acetamide], 1200 nM.
